{"source": "patent US7655392B2", "about": "“Quenching methods for red blood cell inactivation process” (priority 2004, dated 2010)", "key": {"leukocytes": {"tested_on": "leukocytes", "details": "standard pathogen inactivation conditions; cited from earlier work"}, "[1]": {"experiment": "Co-formulation of PIC-1 with neutralized glutathione in one solution (observation)", "type": "physicochemical", "details": "PIC-1 and 20 mM glutathione neutralized with NaOH in one solution (Table 2A samples 4-6)", "description": "The methods of the invention result in adequate inactivation of possible pathogen contaminants in red blood cell compositions with improved quenching as compared to known methods. […] In some embodiments, the quencher is acidic and is neutralized with 1 to 2 equivalents of a suitable base, such as sodium hydroxide. In a preferred embodiment, the quencher is glutathione neutralized with 2 equivalents of base. In a preferred embodiment, the pathogen inactivating compound comprises an acridine group linked to a mustard group via an ester bond. […] The quencher may be added to the red blood cell composition before, after, or simultaneously with the pathogen inactivating compound. In some embodiments, the quencher is added in the time range of about 30 minutes prior to pathogen inactivating compound up to about 10 minutes following pathogen inactivating compound. In some embodiments, the quencher and pathogen inactivating compound may be added essentially simultaneously but separately. […] Because of the high concentration of glutathione required for adequate quenching, the pathogen inactivating compound precipitates when these are in the same solution in high concentrations. Once added to the red blood cell composition, they are sufficiently diluted and buffered as to both be completely soluble."}, "[2]": {"experiment": "pH of quencher stock and of RBC mixture", "type": "physicochemical", "details": "for pH of stock quencher: room temperature", "description": "The effect of various quenching conditions on the pH of a red blood cell composition was determined for various treatment conditions. The quencher solutions were prepared at a concentration of 600 mM in 8% dextrose monohydrate. […] Glutathione was assessed at 2 mM (acidic) or 20 mM (2 eq. of base). […] The pH of the quencher solution, either unmodified or neutralized, was measured using a standard Epoxy Calomel electrode (Beckman Instruments) at room temperature. […] The samples were mixed and the pH at room temperature was measured using the same electrode as described above.\nIn these, the appropriate amount of 600 mM stock was added, mixed with an appropriate volume of 8% dextrose to provide the same volume addition to each RBC sample where in one study, with varied glutathione concentrations, the pH was measured after adding glutathione and after adding PIC-1. […] Similar samples were also assessed for the inactivation of S. epidermidis. […] For gel card analysis, after incubation, the RBC were washed in BBS and were diluted in BBS to a final hematocrit of 4%. A 25 μL aliquot of each was mixed with 15 μL of rabbit polyclonal anti-acridine sera diluted either 1:4 or 1:100 in BBS and the mixture was incubated at 37° C. for 30 minutes. The cells were subsequently washed with 1.5 mL BBS. After washing was complete, the cells were mixed with goat anti-rabbit Fab′2 fragment anti H+L chains (1:4 dilution in PBS) and incubated at 37° C. for 30 minutes."}}, "note": "Where “and” joins values, the source holds several entries; their conditions need not be identical. Equal entries are not always repeated.", "data": [{"smiles": "O=C(CCNc1c2ccccc2nc2ccccc12)OCCN(CCCl)CCCl", "note": "[PIC-1]", "values": [{"measurement": "leukocyte inactivation (level of detection of limiting dilution assay)", "setting": "leukocytes", "result": 5.3, "unit": "log"}, {"measurement": "solubility when formulated together with neutralized glutathione", "setting": "[1]", "result": "precipitated out of solution"}]}, {"smiles": "N[C@@H](CCC(=O)N[C@@H](CS)C(=O)NCC(=O)O)C(=O)O", "note": "[glutathione, γ-L-glutamyl-L-cysteinyl-glycine]", "values": [{"measurement": "pH of stock quencher", "setting": "[2]; 600 mM in 8% dextrose + 1 eq. base", "result": 6.1}, {"measurement": "pH of stock quencher", "setting": "[2]; 600 mM in 8% dextrose + 2 eq. base", "result": "9.5 and 9.2"}, {"measurement": "pH of stock quencher", "setting": "[2]; 600 mM in 8% dextrose, no base added", "result": "2.82 and 3.0"}, {"measurement": "pH of mixture Post quencher", "setting": "[2]; RBC + 2 mM acidic glutathione", "result": 6.7}, {"measurement": "pH of mixture Final", "setting": "[2]; RBC + 2 mM acidic glutathione + 0.2 mM PIC-1", "result": 6.7}, {"measurement": "pH of mixture Post quencher", "setting": "[2]; RBC + 2 mM glutathione + 1 eq. base", "result": 6.8}, {"measurement": "pH of mixture Final", "setting": "[2]; RBC + 2 mM glutathione + 1 eq. base + 0.2 mM PIC-1", "result": 6.8}, {"measurement": "pH of mixture Post quencher", "setting": "[2]; RBC + 2 mM glutathione + 2 eq. base", "result": 6.8}, {"measurement": "pH of mixture Final", "setting": "[2]; RBC + 2 mM glutathione + 2 eq. base + 0.2 mM PIC-1", "result": 6.8}, {"measurement": "pH of mixture Post quencher", "setting": "[2]; RBC + 5 mM acidic glutathione", "result": 6.6}, {"measurement": "pH of mixture Final", "setting": "[2]; RBC + 5 mM acidic glutathione + 0.2 mM PIC-1", "result": 6.6}, {"measurement": "pH of mixture Post quencher", "setting": "[2]; RBC + 5 mM glutathione + 1 eq. base", "result": 6.7}, {"measurement": "pH of mixture Final", "setting": "[2]; RBC + 5 mM glutathione + 1 eq. base + 0.2 mM PIC-1", "result": 6.7}, {"measurement": "pH of mixture Post quencher", "setting": "[2]; RBC + 5 mM glutathione + 2 eq. base", "result": 6.9}, {"measurement": "pH of mixture Final", "setting": "[2]; RBC + 5 mM glutathione + 2 eq. base + 0.2 mM PIC-1", "result": 6.9}, {"measurement": "pH of mixture Post quencher", "setting": "[2]; RBC + 10 mM acidic glutathione", "result": 6.4}, {"measurement": "pH of mixture Final", "setting": "[2]; RBC + 10 mM acidic glutathione + 0.2 mM PIC-1", "result": 6.4}, {"measurement": "pH of mixture Post quencher", "setting": "[2]; RBC + 10 mM glutathione + 1 eq. base", "result": 6.7}, {"measurement": "pH of mixture Final", "setting": "[2]; RBC + 10 mM glutathione + 1 eq. base + 0.2 mM PIC-1", "result": 6.7}, {"measurement": "pH of mixture Post quencher", "setting": "[2]; RBC + 10 mM glutathione + 2 eq. base", "result": 7.2}, {"measurement": "pH of mixture Final", "setting": "[2]; RBC + 10 mM glutathione + 2 eq. base + 0.2 mM PIC-1", "result": 7.0}, {"measurement": "pH of mixture Post quencher", "setting": "[2]; RBC + 20 mM acidic glutathione", "result": 6.1}, {"measurement": "pH of mixture Final", "setting": "[2]; RBC + 20 mM acidic glutathione + 0.2 mM PIC-1", "result": 6.1}, {"measurement": "pH of mixture Post quencher", "setting": "[2]; RBC + 20 mM glutathione + 1 eq. base", "result": 6.7}, {"measurement": "pH of mixture Final", "setting": "[2]; RBC + 20 mM glutathione + 1 eq. base + 0.2 mM PIC-1", "result": 6.7}, {"measurement": "pH of mixture Post quencher", "setting": "[2]; RBC + 20 mM glutathione + 2 eq. base", "result": 7.4}, {"measurement": "pH of mixture Final", "setting": "[2]; RBC + 20 mM glutathione + 2 eq. base + 0.2 mM PIC-1", "result": 7.2}, {"measurement": "pH of final mixture", "setting": "[2]; Table 10: RBC + 2 mM acidic quencher + 0.2 mM PIC-1", "result": 6.9}, {"measurement": "pH of final mixture", "setting": "[2]; Table 10: RBC + 20 mM quencher + 2 eq. base + 0.2 mM PIC-1", "result": 7.7}, {"measurement": "pH of solution", "setting": "[2]; glutathione solution neutralized with 2 equivalents of sodium hydroxide", "result": "approximately 9.5"}, {"measurement": "pH of solution", "setting": "[2]; solution of the protonated glutathione", "result": "approximately 3"}]}]}
